Measurements: the NIST ThermoML archive (doi:10.1016/j.jct.2009.05.005)
Numbers after ± are expanded uncertainties. Values belong to the compound of their own block, whether it stands above or below them.

Experiment: xn = mol fraction of the nth substance listed
Conditions: 298.15 K, 101 kPa, Liquid, Vibrating tube method

mass density (x1 = 0.001389): 786.234 ± 0.15 kg/m3
mass density (x1 = 0.00209): 786.827 ± 0.15 kg/m3
mass density (x1 = 0.002792): 787.377 ± 0.15 kg/m3
SMILES: CC1(C)[C@H]2CC[C@]1(C)C(=O)C2=O [(+)-camphorquinone] + CCO

SMILES: CCO [ethanol] + CC1(C)C2CCC1(CS(=O)(=O)Cl)C(=O)C2
mass density (x2 = 0): 785.033 ± 0.15 kg/m3

mass density (x1 = 0.0006848): 786.327 ± 0.15 kg/m3
mass density (x1 = 0.001385): 787.552 ± 0.15 kg/m3
mass density (x1 = 0.002039): 788.887 ± 0.15 kg/m3
SMILES: CC1(C)C2CCC1(CS(=O)(=O)Cl)C(=O)C2 (stereo not drawn) [d-10-camphorsulfonyl chloride] + CCO

SMILES: CCO [ethanol] + CC1(C)[C@@H]2CC[C@@]1(C)C(=O)C2=O
mass density (x2 = 0): 785.025 ± 0.15 kg/m3

mass density (x1 = 9.665e-05): 785.188 ± 0.15 kg/m3
mass density (x1 = 0.001502): 787.624 ± 0.15 kg/m3
mass density (x1 = 0.002013): 788.405 ± 0.15 kg/m3
SMILES: CC1(C)[C@@H]2CC[C@@]1(CS(N)(=O)=O)C(=O)C2 [(1S)-(+)-10-camphorsulfonamide] + CCO

SMILES: CCO [ethanol] + CC1(C)[C@H]2CC[C@]1(C)C(=O)C2=O
mass density (x2 = 0): 785.022 ± 0.15 kg/m3

mass density (x1 = 0.0006848): 786.329 ± 0.15 kg/m3
mass density (x1 = 0.001385): 787.654 ± 0.15 kg/m3
mass density (x1 = 0.002039): 788.885 ± 0.15 kg/m3
SMILES: CC1(C)[C@H]2CC[C@]1(CS(=O)(=O)Cl)C(=O)C2 [(1R)-(-)-10-camphorsulfonyl chloride] + CCO

mass density (x1 = 0.001389): 786.235 ± 0.15 kg/m3
mass density (x1 = 0.00209): 786.827 ± 0.15 kg/m3
mass density (x1 = 0.002792): 787.379 ± 0.15 kg/m3
SMILES: CC1(C)[C@@H]2CC[C@@]1(C)C(=O)C2=O [(-)-camphorquinone] + CCO

mass density (x1 = 0.001067): 787.036 ± 0.15 kg/m3
mass density (x1 = 0.001496): 787.969 ± 0.15 kg/m3
mass density (x1 = 0.002271): 789.366 ± 0.15 kg/m3
SMILES: CC1(C)[C@H]2CC[C@]1(CS(=O)(=O)O)C(=O)C2 [(1R)-(-)-10-camphorsulfonic acid] + CCO

mass density (x1 = 0.001613): 786.229 ± 0.15 kg/m3
mass density (x1 = 0.003055): 786.827 ± 0.15 kg/m3
mass density (x1 = 0.009161): 788.887 ± 0.15 kg/m3
mass density (x1 = 0.01574): 789.421 ± 0.15 kg/m3
SMILES: CC1(C)[C@@H]2CC[C@@]1(C)C(=O)C2 [d-camphor] + CCO

SMILES: CCO [ethanol] + CC1(C)[C@@H]2CC[C@@]1(CS(=O)(=O)O)C(=O)C2
mass density (x2 = 0): 785.026 ± 0.15 kg/m3

SMILES: CCO [ethanol] + CC1(C)[C@H]2CC[C@]1(CS(=O)(=O)Cl)C(=O)C2
mass density (x2 = 0): 785.035 ± 0.15 kg/m3

SMILES: CCO [ethanol] + CC1(C)[C@H]2CC[C@]1(C)C(=O)C2
mass density (x2 = 0): 785.056 ± 0.15 kg/m3

mass density (x1 = 0.001613): 786.229 ± 0.15 kg/m3
mass density (x1 = 0.003055): 786.828 ± 0.15 kg/m3
mass density (x1 = 0.009161): 788.869 ± 0.15 kg/m3
mass density (x1 = 0.01574): 789.42 ± 0.15 kg/m3
SMILES: CC1(C)[C@H]2CC[C@]1(C)C(=O)C2 [(1S)-1,7,7-trimethylbicyclo[2.2.1]heptan-2-one] + CCO

SMILES: CCO [ethanol] + CC1(C)[C@H]2CC[C@]1(CS(=O)(=O)O)C(=O)C2
mass density (x2 = 0): 785.024 ± 0.15 kg/m3

mass density (x1 = 0.001067): 787.039 ± 0.15 kg/m3
mass density (x1 = 0.001496): 787.971 ± 0.15 kg/m3
mass density (x1 = 0.002271): 789.368 ± 0.15 kg/m3
SMILES: CC1(C)[C@@H]2CC[C@@]1(CS(=O)(=O)O)C(=O)C2 [(1S)-(+)-10-camphorsulfonic acid] + CCO

SMILES: CCO [ethanol] + CC1(C)[C@@H]2CC[C@@]1(C)C(=O)C2
mass density (x2 = 0): 785.055 ± 0.15 kg/m3

SMILES: CCO [ethanol] + CC1(C)[C@@H]2CC[C@@]1(CS(N)(=O)=O)C(=O)C2
mass density (x2 = 0): 785.013 ± 0.15 kg/m3
